The values below come from US20200011856A1, “Method for Determining the Effectiveness of Treatment for the Prevention of Heartworm Disease” (priority 2017, published 2020).

“And” between values parts separate entries of the source, which are not always exact repeats. Equal values may be shown once.

The test system of this assay is Dirofilaria immitis. Briefly: D. immitis L3 infection of NSG mice (FR3 Missouri strain or strain not stated), treatment, recovery and count of worms at necropsy. The class given is in vivo.

For `COC(=O)Nc1nc2ccc(OS(=O)(=O)c3ccc(F)cc3)cc2[nH]1` [compound 8914, luxabendazole], where the note is “Table 9, NSG mice, 50 Di L3, 1 mg/kg on Days 1, 15, and 30, recovery Days 41 to 43”, the “% Red” value turned out to be 0%. Besides, the “Mean % Rec” value (Table 9, group mean, NSG mice, 50 Di L3, 1 mg/kg on Days 1, 15, and 30, recovery Days 41 to 43) came out at 33%. Further, for the setting “Table 9, individual mouse, NSG mice, 50 Di L3, 1 mg/kg on Days 1, 15, and 30, recovery Days 41 to 43”, the “% Rec” value is 24% and 32% and 28% and 48%. For the same compound, where the note is “in vivo”, the “Mean Survival” value stood at 17; the Survival is 12 and 16 and 14 and 24.
